The term AUC(0-inf) denotes total exposure, with the tail of the curve extrapolated. Low readings indicate low exposure, high ones high exposure. The Cmax is the peak of the concentration-time curve. Usually half-life stands for how long it takes for the measured level to halve. Low readings indicate fast loss, high ones slow loss.

Structures are written as SMILES.

Here are results for 1 compound from patent publication US11304945B2, “Pharmaceutical composition and method for preparing same” (Jiangsu Hengrui Medicine Co., Ltd., priority 2017, dated 2022).

A short description of this series: Pharmacokinetics (PK) study in animals. To be noted: both sexes, dog; beagle dogs, oral, 30 mg/kg, plasma. It is filed as in vivo. As to the method:
12 beagle dogs were grouped into two groups (6 beagle dogs per group, half male and half female). The beagle dogs were fasted for more than 12 h before the experiment, and food was provided 4 h after the drug administration on the day of the experiment. Water was not deprived during the experiment. The crystal form of compound A and the solid dispersion of compound A, respectively (the ratio of compound A to hydroxypropyl methylcellulose acetate succinate was 1:1, according to the formulation of Experimental Example 3), were administered orally to the two groups of animals with an administration dose of 30 mg/kg. 0.6 mL of blood was taken from climb veins before administration and 0.25, 0.5, 1.0, 2.0, 4.0, 6.0, 8.0, 12, 24 and 72 h after administration. The blood was stored in an ethylenediaminetetraacetic acid (EDTA) anticoagulant tube, and centrifuged for 10 minutes at 3500 rpm (4° C.) to separate the blood plasma. The plasma was stored at −70° C.
The concentration of API in the blood plasma and the administrated solution was determined by liquid chromatography-tandem mass spectrometry (LC/MS/MS). The pharmacokinetic parameters of beagle dogs after drug administration were calculated with the resulting plasma concentration using the non-compartmental model of Phoenix WinNonlin 6.4 software.

As for `CC#CC(=O)N1CC[C@@H](n2cc(-c3ccc(Oc4c(F)cccc4F)cc3)c3c(N)n[nH]c(=O)c32)C1` [Crystal form of compound A, (R)-4-amino-1-(1-(but-2-ynoyl)pyrrolidin-3-yl)-3-(4-(2,6-difluorophenoxy)phenyl)-1,6-dihydro-7H-pyrrolo[2,3-d]pyridazin-7-one], the AUC(0-inf) came to 3870 ± 3170 ng·h/mL, the Cmax amounted to 630 ± 530 ng/mL and the half-life is 3.02 ± 0.65 h.
